Data reported in paper PMC6158786 (ACS chemical biology, 2018).
Numbering of substitutions follows the chain as printed.

Key:
Type in all cases: biochemical
human BCO1 [1] = target: T1, human BCO1 (Homo sapiens, UniProt Q9HAY6); experiment: HPLC product formation; conditions: DMN micelles, pH 7, 30 °C, 12 min
T1 sequence (Q9HAY6 1-547): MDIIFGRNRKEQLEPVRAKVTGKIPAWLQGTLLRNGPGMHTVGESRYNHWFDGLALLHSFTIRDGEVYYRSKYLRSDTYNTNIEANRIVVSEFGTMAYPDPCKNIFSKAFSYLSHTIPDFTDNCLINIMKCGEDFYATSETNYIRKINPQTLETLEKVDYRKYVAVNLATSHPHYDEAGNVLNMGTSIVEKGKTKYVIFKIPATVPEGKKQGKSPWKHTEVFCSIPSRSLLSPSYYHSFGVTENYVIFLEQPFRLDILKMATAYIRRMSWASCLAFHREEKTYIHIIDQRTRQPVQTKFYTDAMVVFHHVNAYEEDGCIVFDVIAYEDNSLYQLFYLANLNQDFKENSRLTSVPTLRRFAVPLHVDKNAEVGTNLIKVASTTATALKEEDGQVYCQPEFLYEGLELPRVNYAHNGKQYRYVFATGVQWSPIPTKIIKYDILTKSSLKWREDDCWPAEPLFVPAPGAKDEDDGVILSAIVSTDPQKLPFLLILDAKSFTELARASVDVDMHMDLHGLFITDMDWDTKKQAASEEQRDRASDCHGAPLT

human BCO1 [2] = target: T2, human BCO1 (Homo sapiens, UniProt Q9HAY6, W270F); experiment: HPLC product formation with E. coli protein extract; conditions: DMN micelles, 30 °C; product all-trans-3-hydroxy-retinal
T2 sequence (Q9HAY6 1-547 W270F): T1 sequence (Q9HAY6 1-547) with W270F

human BCO1 [3] = target: T3, human BCO1 (Homo sapiens, UniProt Q9HAY6, L168G/W270F); experiment: as above; conditions: DMN micelles, 30 °C; product all-trans-3-hydroxy-retinal
T3 sequence (Q9HAY6 1-547 L168G/W270F): T1 sequence (Q9HAY6 1-547) with L168G, W270F

human BCO1 [4] = target: T1, human BCO1; experiment: inhibition of BC cleavage by E. coli crude extract, HPLC; conditions: 20 μM BC, 10 μM fenretinide, DMN micelles

CC1=C(/C=C/C(C)=C/C=C/C(C)=C/C=C/C=C(C)/C=C/C=C(C)/C=C/C2=C(C)CCCC2(C)C)C(C)(C)CCC1 [BC, β,β-carotene]
HPLC product formation (human BCO1 [1]; product all-trans-retinal): BCO1 catalyzed the production of all-trans-retinal from BC

CC1=C(/C=C/C(C)=C/C=C/C(C)=C/C=C/C=C(C)/C=C/C=C(C)/C=C/C2=C(C)C[C@@H](O)CC2(C)C)C(C)(C)CCC1 [CX, 3R-β,β-Caroten-3-ol]
HPLC product formation (human BCO1 [1]; products all-trans-retinal and 3-hydroxy-retinal): all-trans-retinal and all-trans-3-hydroxy-retinal resulting from CX cleavage displayed distinct retention times

CC1=C(/C=C/C(C)=C/C=C/C(C)=C/C=C/C=C(C)/C=C/C=C(C)/C=C/C2=C(C)C[C@@H](O)CC2(C)C)C(C)(C)C[C@H](O)C1 [ZEA, zeaxanthin]
HPLC product formation with E. coli protein extract (human BCO1 [2]): mutant BCO1 variants readily converted zeaxanthin to all-trans-3-hydroxy-retinal in repeated assays
HPLC product formation with E. coli protein extract (human BCO1 [3]): mutant BCO1 variants readily converted zeaxanthin to all-trans-3-hydroxy-retinal in repeated assays

CC1=C(/C=C/C(C)=C/C=C/C(C)=C/C(=O)Nc2ccc(O)cc2)C(C)(C)CCC1 [fenretinide]
inhibition at 10 μM (human BCO1 [4]): fenretinide, a known BCO1 inhibitor, efficiently inhibited the enzymatic activity of BCO1
